Measured values reported in US20040228804A1, “Nasal administration of xylitol to a non-human mammal” (priority 2003, published 2004).

Legend:
[1] = tested on: shipping fever; assay: treating cattle with xylitol in solution to reduce or prevent shipping fever; type: in vivo; details: 1% xylitol in solution; lower limit of tested effectiveness
Description: (§1) Embodiments of the present invention are directed to treating cattle with xylitol in solution in order to reduce or prevent shipping fever, and/or ailments associated with close quartering of cattle. The solution may be a saline based solution for some embodiments, but the solution may also have just a water base. A maximum strength may be a saturated solution comprising approximately of 64 grams of xylitol per 100 cubic centimeters (cc's) of solution. The inventor has yet to determine a precise lower limit of xylitol that would be effective, but as little as 1% xylitol in solution has shown to be effective. It should be understood however, that a 1% xylitol in solution should not be construed as a lower limit of effectiveness; rather, this is only the lower limit of tested effectiveness. Smaller percentages of the xylitol in solution may likewise be effective, and thus their use would be within the scope and spirit of the invention.
The precise mode of application of the xylitol in solution may vary substantially. In at least some embodiments, nostrils of the cattle may be treated directly prior to close quartering, such as shipping. In particular, in these embodiments the xylitol in solution be applied to each nostril of each animal in the form of a mist (nebulized), which application preferably takes place for approximately two respiratory cycles of the animal for each nostril. […]

[2] = saturated solution of xylitol (maximum strength); type: physicochemical; details: saline or water based solution
Description: as §1

[3] = tested on: pathogenic bacteria; details: several pathogenic bacteria exposed to xylitol; cited from earlier work

## OC[C@@H](O)[C@H](O)[C@@H](O)CO [xylitol]
[1]
  effectiveness of xylitol in solution: effective
[2]
  saturated solution, xylitol per 100 cubic centimeters of solution: ~64 grams per 100 cubic centimeter
[3]
  adherence of bacteria to their environment: less adherent
